#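 Five compound concentrations were applied to cells in 96-well plates for 48 hours; endpoints were derived by simple linear interpolation of the resulting dose-response curve. The concentration for 50% growth inhibition is given as GI50. At the TGI there is no net growth.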
# Experiments:
# Experiment in all cases: DTP human tumour cell line panel, 48 h
# HS 578T breast = tested on: HS 578T breast
# NCI-H460 lung = tested on: NCI-H460 lung
# U251 CNS = tested on: U251 CNS
# SK-MEL-28 melanoma = tested on: SK-MEL-28 melanoma
# SF-268 CNS = tested on: SF-268 CNS
# HCT-15 colon = tested on: HCT-15 colon
# HOP-92 NSCLC = tested on: HOP-92 NSCLC
# SK-MEL-5 melanoma = tested on: SK-MEL-5 melanoma
# M14 melanoma = tested on: M14 melanoma
# COLO 205 colon = tested on: COLO 205 colon
# HCC-2998 colon = tested on: HCC-2998 colon
# IGROV1 ovarian = tested on: IGROV1 ovarian
# HL-60(TB) leukemia = tested on: HL-60(TB) leukemia
# SR leukemia = tested on: SR leukemia
# TK-10 renal = tested on: TK-10 renal
# NCI-H23 lung = tested on: NCI-H23 lung
# NCI-H226 lung = tested on: NCI-H226 lung
# EKVX NSCLC = tested on: EKVX NSCLC
# HOP-62 NSCLC = tested on: HOP-62 NSCLC
# BT-549 breast = tested on: BT-549 breast
# PC-3 prostate = tested on: PC-3 prostate
# MOLT-4 leukemia = tested on: MOLT-4 leukemia
# SF-539 CNS = tested on: SF-539 CNS
# A498 renal = tested on: A498 renal
# SW-620 colon = tested on: SW-620 colon
# KM12 colon = tested on: KM12 colon
# K-562 leukemia = tested on: K-562 leukemia
compound,measurement,setting,value
CC1(C)CC[C@]23CC[C@]4(C)[C@H](CC[C@@H]5[C@@]6(C)CCCN(CO)C(C)(C)[C@@H]6CC[C@]54C)[C@H]2[C@H]1OC3,GI50,HS 578T breast,3.32 µM
same,TGI,HS 578T breast,17.1 µM
same,GI50,NCI-H460 lung,1.88 µM
same,TGI,NCI-H460 lung,3.7 µM
same,GI50,U251 CNS,2.05 µM
same,TGI,U251 CNS,4.7 µM
same,GI50,SK-MEL-28 melanoma,1.97 µM
same,TGI,SK-MEL-28 melanoma,3.78 µM
same,GI50,SF-268 CNS,6.61 µM
same,TGI,SF-268 CNS,22.8 µM
same,GI50,HCT-15 colon,1.75 µM
same,TGI,HCT-15 colon,3.71 µM
same,GI50,HOP-92 NSCLC,1.68 µM
same,TGI,HOP-92 NSCLC,4.75 µM
same,GI50,SK-MEL-5 melanoma,16.1 µM
same,TGI,SK-MEL-5 melanoma,30.7 µM
same,GI50,M14 melanoma,1.8 µM
same,TGI,M14 melanoma,4.04 µM
same,GI50,COLO 205 colon,1.7 µM
same,TGI,COLO 205 colon,3.35 µM
same,GI50,HCC-2998 colon,1.76 µM
same,TGI,HCC-2998 colon,3.35 µM
same,GI50,IGROV1 ovarian,1.91 µM
same,TGI,IGROV1 ovarian,4 µM
same,GI50,HL-60(TB) leukemia,2.01 µM
same,TGI,HL-60(TB) leukemia,5.07 µM
same,GI50,SR leukemia,1.87 µM
same,TGI,SR leukemia,13.1 µM
same,GI50,TK-10 renal,14 µM
same,TGI,TK-10 renal,28.7 µM
same,GI50,NCI-H23 lung,2.19 µM
same,TGI,NCI-H23 lung,5.75 µM
same,GI50,NCI-H226 lung,2.62 µM
same,TGI,NCI-H226 lung,7.85 µM
same,GI50,EKVX NSCLC,5.7 µM
same,TGI,EKVX NSCLC,21.3 µM
same,GI50,HOP-62 NSCLC,2.91 µM
same,TGI,HOP-62 NSCLC,12.4 µM
same,GI50,BT-549 breast,8.31 µM
same,TGI,BT-549 breast,26 µM
same,GI50,PC-3 prostate,2.91 µM
same,TGI,PC-3 prostate,13.9 µM
same,GI50,MOLT-4 leukemia,2.99 µM
same,TGI,MOLT-4 leukemia,10.2 µM
same,GI50,SF-539 CNS,2.15 µM
same,TGI,SF-539 CNS,4.95 µM
same,GI50,A498 renal,12 µM
same,TGI,A498 renal,25.6 µM
same,GI50,SW-620 colon,1.68 µM
same,TGI,SW-620 colon,3.24 µM
same,GI50,KM12 colon,1.73 µM
same,TGI,KM12 colon,3.5 µM
same,GI50,K-562 leukemia,2.25 µM
same,TGI,K-562 leukemia,> 100 µM

# From PubChem BioAssay (NCI)
